The text below walks through data of US7238778B2, “Crystallized glucocorticoid receptor ligand binding domain polypeptide and screening methods employing same” (SmithKline Beecham Corporation, priority 2001, dated 2007).

Assay [1] deals with T1, GST-GR LBD (F602S) 521–777 (Homo sapiens, UniProt P04150, F602S).
T1 construct: GR-LBD(521–777) F602S; made in house; host or cells: E. coli BL21(DE3); TIF2 peptide made by chemical synthesis
T1 sequence (P04150 521-777 F602S): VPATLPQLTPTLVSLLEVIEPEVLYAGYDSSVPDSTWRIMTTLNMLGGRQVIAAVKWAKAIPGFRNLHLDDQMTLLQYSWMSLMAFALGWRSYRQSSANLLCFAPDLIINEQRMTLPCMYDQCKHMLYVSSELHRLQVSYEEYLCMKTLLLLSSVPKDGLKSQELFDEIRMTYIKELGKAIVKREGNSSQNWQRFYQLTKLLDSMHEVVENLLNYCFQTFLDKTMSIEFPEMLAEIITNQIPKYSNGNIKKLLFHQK
As to the kind of experiment: Surface plasmon resonance (Biacore) binding of GST-GR LBD to immobilized TIF2 LXXLL peptide. Here is the method:
Each point is the average of two determinations.
FIG. 2B was generated using Biacore techniques. Biacore relies on changes in the refractive index at the surface layer upon binding of a ligand to a protein immobilized on the layer. In this system, a collection of small ligands is injected sequentially in a 2–5 microliter cell, wherein the protein is immobilized within the cell. Binding is detected by surface plasmon resonance (SPR) by recording laser light refracting from the surface. […] The purified protein is then used in the assay without further preparation. A synthetic peptide with an amino-terminal biotin is coupled to a sensor chip immobilized with streptavidin. The chip thus prepared is then exposed to the potential ligand via the delivery system incorporated in the instruments sold by Biacore (Uppsala, Sweden) to pipet the ligands in a sequential manner (autosampler). The SPR signal on the chip is recorded and changes in the refractive index indicate an interaction between the immobilized target and the ligand. Analysis of the signal kinetics of on rate and off rate allows the discrimination between non-specific and specific interaction.
In general terms: SPR reads the build-up and loss of mass on a sensor chip optically.

A further assay addresses GR LBD (F602S) 521–777 (Homo sapiens, UniProt P04150, F602S). Conditions: GST-GR fusion protein and cleaved GR LBD alone; 10 nM fluorescein dexamethasone, competed with 100 uM unlabeled dexamethasone (FIG. 2A).
The target of assay [2] is T2, GST-GR LBD 521–777 (F602S) (Homo sapiens, UniProt P04150, F602S).
T2 construct: GR-LBD(521–777) F602S; made in house; host or cells: E. coli BL21(DE3)
T2 sequence (P04150 521-777 F602S): T1 sequence (P04150 521-777 F602S)
As to the kind of experiment: Stability of GR dexamethasone binding activity over time by fluorescence polarization. The note with it: 25 uM peptide, 1 μM GST-GR LBD, 10 nM fluorescein dexamethasone (FIG. 2C). On the procedure: FIG. 2C is a graph depicting that TIF2 coactivator peptide enhances stability of GR dexamethasone binding activity. The effect of 25 uM coactivator peptide TIF2 732–756 (diamonds) or no peptide (squares) on the binding of GST-GR LBD (F602S) 521–777 to 10 nM fluorescein dexamethasone with time is determined by fluorescence polarization.
(In fluorescence polarisation assays a small probe gives low polarisation when free and higher when bound to something large.)

GR LBD (F602S) 521–777, sequence (P04150 with tags, fused parts or gaps F602S): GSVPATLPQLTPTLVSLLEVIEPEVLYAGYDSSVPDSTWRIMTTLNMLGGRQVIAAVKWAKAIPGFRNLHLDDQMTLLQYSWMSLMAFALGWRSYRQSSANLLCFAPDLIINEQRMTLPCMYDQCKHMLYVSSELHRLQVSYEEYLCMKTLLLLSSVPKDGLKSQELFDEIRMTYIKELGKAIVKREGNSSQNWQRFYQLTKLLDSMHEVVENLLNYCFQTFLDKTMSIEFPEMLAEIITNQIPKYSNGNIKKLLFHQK

For “(11β, 16α)-9-fluoro-11β,17,21-trihydroxy-16α-methylpregna-1-4-diene-3,20-dione [dexamethasone]”, the “effect of ligand on binding of the GST-GR fusion protein to the TIF2 peptide” value in assay [1] (five-fold excess of compound over GST-GR LBD (F602S) (FIG. 2B)) is listed as “enhanced”. Further, the “binding of dexamethasone to GR” value on GR LBD (F602S) 521–777 is “saturable and competable”.
Regarding “QEPVSPKKKENALLRYLLDKDDTKD [TIF2 peptide]”, the “affinity of the TIF2 coactivator peptide for the GST-GR fusion protein” value in assay [1] (immobilized TIF2 732–756 peptide (FIG. 2B)) was “submicromolar”. Also, the “effect on the dexamethasone binding activity of the GST-GR fusion protein with time” value in assay [2] is “stabilizes”.
